Measured values: patent US8829007B2 (priority 2009, dated 2014)

Test system: influenza A virus (A/PR/8/34)
Experiment: microbe, parasite or virus in culture
Assay type: cell-based
Conditions: Influenza A virus, PR/8, MDCK, mean all; A/PR/8/34 infected MDCK cells, CPE assay; read-out: IC50

Structure (SMILES)	IC50 [µM]
CCCS(=O)(=O)N1CCCC[C@@H]1CNc1nc(-c2c[nH]c3ncc(Cl)cc23)ncc1F [Compound 328, (R)-2-(5-chloro-1H-pyrrolo[2,3-b]pyridin-3-yl)-5-fluoro-N-((1-(propylsulfonyl)piperidin-2-yl)methyl)pyrimidin-4-amine]	> 20
CCCCS(=O)(=O)N1CCCC[C@@H]1CNc1nc(-c2c[nH]c3ncc(Cl)cc23)ncc1F [Compound 329, (R)—N-((1-(butylsulfonyl)piperidin-2-yl)methyl)-2-(5-chloro-1H-pyrrolo[2,3-b]pyridin-3-yl)-5-fluoropyrimidin-4-amine]	> 20
CC(=O)N[C@@H]1CCCC[C@H]1Nc1nc(-c2c[nH]c3ncccc23)ncc1F [Compound 348, N-[(1R,2R)-2-[[5-fluoro-2-(1H-pyrrolo[2,3-b]pyridin-3-yl)pyrimidin-4-yl]amino]cyclohexyl]acetamide]	> 20
O=C(N[C@@H]1CCCC[C@H]1Nc1nc(-c2c[nH]c3ncc(Cl)cc23)ncc1F)C1CCCC1 [Compound 351, N-[(1R,2R)-2-[[2-(5-chloro-1H-pyrrolo[2,3-b]pyridin-3-yl)-5-fluoro-pyrimidin-4-yl]amino]cyclohexyl]cyclopentanecarboxamide]	> 20
O=C(N[C@@H]1CCCC[C@H]1Nc1nc(-c2c[nH]c3ncc(Cl)cc23)ncc1F)c1ccccc1 [Compound 352, N-[(1R,2R)-2-[[2-(5-chloro-1H-pyrrolo[2,3-b]pyridin-3-yl)-5-fluoro-pyrimidin-4-yl]amino]cyclohexyl]benzamide]	> 20
CS(=O)(=O)N[C@@H]1CCCC[C@H]1Nc1nc(-c2c[nH]c3ncc(Cl)cc23)ncc1F [Compound 353, N-[(1R,2R)-2-[[2-(5-chloro-1H-pyrrolo[2,3-b]pyridin-3-yl)-5-fluoro-pyrimidin-4-yl]amino]cyclohexyl]methanesulfonamide]	> 20
CCCS(=O)(=O)N[C@@H]1CCCC[C@H]1Nc1nc(-c2c[nH]c3ncc(Cl)cc23)ncc1F [Compound 354, N-[(1R,2R)-2-[[2-(5-chloro-1H-pyrrolo[2,3-b]pyridin-3-yl)-5-fluoro-pyrimidin-4-yl]amino]cyclohexyl]propane-1-sulfonamide]	> 20
CCCNC(=O)N[C@@H]1CCCC[C@H]1Nc1nc(-c2c[nH]c3ncc(Cl)cc23)ncc1F [Compound 355, 1-[(1R,2R)-2-[[2-(5-chloro-1H-pyrrolo[2,3-b]pyridin-3-yl)-5-fluoro-pyrimidin-4-yl]amino]cyclohexyl]-3-propyl-urea]	> 20
CCC(=O)N[C@@H]1CCCC[C@H]1Nc1nc(-c2c[nH]c3ncccc23)ncc1F [Compound 356, N-[(1R,2R)-2-[[5-fluoro-2-(1H-pyrrolo[2,3-b]pyridin-3-yl)pyrimidin-4-yl]amino]cyclohexyl]propanamide]	> 20
CCCC(=O)N[C@@H]1CCCC[C@H]1Nc1nc(-c2c[nH]c3ncccc23)ncc1F [Compound 358, N-[(1R,2R)-2-[[5-fluoro-2-(1H-pyrrolo[2,3-b]pyridin-3-yl)pyrimidin-4-yl]amino]cyclohexyl]butanamide]	> 20
O=C(N[C@@H]1CCCC[C@H]1Nc1nc(-c2c[nH]c3ncccc23)ncc1F)C1CCCC1 [Compound 359, N-[(1R,2R)-2-[[5-fluoro-2-(1H-pyrrolo[2,3-b]pyridin-3-yl)pyrimidin-4-yl]amino]cyclohexyl]cyclopentanecarboxamide]	> 20
O=C(N[C@@H]1CCCC[C@H]1Nc1nc(-c2c[nH]c3ncccc23)ncc1F)c1ccccc1 [Compound 360, N-[(1R,2R)-2-[[5-fluoro-2-(1H-pyrrolo[2,3-b]pyridin-3-yl)pyrimidin-4-yl]amino]cyclohexyl]benzamide]	> 20
CS(=O)(=O)N[C@@H]1CCCC[C@H]1Nc1nc(-c2c[nH]c3ncccc23)ncc1F [Compound 361, N-[(1R,2R)-2-[[5-fluoro-2-(1H-pyrrolo[2,3-b]pyridin-3-yl)pyrimidin-4-yl]amino]cyclohexyl]methanesulfonamide]	> 20
CCCS(=O)(=O)N[C@@H]1CCCC[C@H]1Nc1nc(-c2c[nH]c3ncccc23)ncc1F [Compound 362, N-[(1R,2R)-2-[[5-fluoro-2-(1H-pyrrolo[2,3-b]pyridin-3-yl)pyrimidin-4-yl]amino]cyclohexyl]propane-1-sulfonamide]	> 20
O=C(NC1CCCCC1Nc1nc(-c2c[nH]c3ncc(Cl)cc23)ncc1F)C1CCCC1 (stereo not drawn) [Compound 364, N-[(trans-2-[[2-(5-chloro-1H-pyrrolo[2,3-b]pyridin-3-yl)-5-fluoro-pyrimidin-4-yl]amino]cyclohexyl]cyclopentanecarboxamide]	> 20
CCCC(=O)N[C@@H]1CCCC[C@H]1Nc1nc(-c2c[nH]c3ncc(Cl)cc23)ncc1F [Compound 369, N-[(1R,2R)-2-[[2-(5-chloro-1H-pyrrolo[2,3-b]pyridin-3-yl)-5-fluoro-pyrimidin-4-yl]amino]cyclohexyl]butanamide]	> 20
CCCNC(=O)N[C@@H]1CCCC[C@H]1Nc1nc(-c2c[nH]c3ncccc23)ncc1F [Compound 370, 1-[(1R,2R)-2-[[5-fluoro-2-(1H-pyrrolo[2,3-b]pyridin-3-yl)pyrimidin-4-yl]amino]cyclohexyl]-3-propyl-urea]	> 20
CC(C)NC(=O)N1CCCC[C@@H]1CNc1nc(-c2c[nH]c3ncccc23)ncc1F [Compound 371]	> 20
CNC(=O)N1CCCC[C@@H]1CNc1nc(-c2c[nH]c3ncccc23)ncc1F [Compound 374, (R)-2-((5-fluoro-2-(1H-pyrrolo[2,3-b]pyridin-3-yl)pyrimidin-4-ylamino)methyl)-N-methylpiperidine-1-carboxamide]	> 20
O=C1NCCC1Nc1nc(-c2c[nH]c3ncc(Cl)cc23)ncc1F (stereo not drawn) [Compound 380]	5 to 20
CS(=O)(=O)N1CCCC[C@H]1CNc1nc(-c2c[nH]c3ncc(Cl)cc23)ncc1F [Compound 384, (S)-2-(5-chloro-1H-pyrrolo[2,3-b]pyridin-3-yl)-5-fluoro-N-((1-(methylsulfonyl)-piperidin-2-yl)methyl)pyrimidin-4-amine]	< 5
O=S(=O)(C1CC1)N1CCCC[C@H]1CNc1nc(-c2c[nH]c3ncc(Cl)cc23)ncc1F [Compound 386, (S)-2-(5-chloro-1H-pyrrolo[2,3-b]pyridin-3-yl)-5-fluoro-N-((1-(cyclopropylsulfonyl)-piperidin-2-yl)methyl)pyrimidin-4-amine]	< 5
Fc1cnc(-c2c[nH]c3ncc(Cl)cc23)nc1NCC1CN(Cc2ccccc2)CCO1 (stereo not drawn) [Compound 388, N-((4-benzylmorpholin-2-yl)methyl)-2-(5-chloro-1H-pyrrolo[2,3-b]pyridin-3-yl)-5-fluoropyrimidin-4-amine]	> 20
CCS(=O)(=O)N1CC[C@H](Nc2nc(-c3c[nH]c4ncc(Cl)cc34)ncc2F)C1 [Compound 399, (S)-2-(5-chloro-1H-pyrrolo[2,3-b]pyridin-3-yl)-N-(1-(ethylsulfonyl)pyrrolidin-3-yl)-5-fluoropyrimidin-4-amine]	< 5
CC(C)S(=O)(=O)N1CC[C@H](Nc2nc(-c3c[nH]c4ncc(Cl)cc34)ncc2F)C1 [Compound 400, (5)-2-(5-chloro-1H-pyrrolo[2,3-b]pyridin-3-yl)-5-fluoro-N-(1-(isopropylsulfonyl)pyrrolidin-3-yl)pyrimidin-4-amine]	5 to 20
O=S(=O)(C1CC1)N1CC[C@H](Nc2nc(-c3c[nH]c4ncc(Cl)cc34)ncc2F)C1 [Compound 401, (S)-2-(5-chloro-1H-pyrrolo[2,3-b]pyridin-3-yl)-N-(1-(cyclopropylsulfonyl)pyrrolidin-3-yl)-5-fluoropyrimidin-4-amine]	5 to 20
CCCCS(=O)(=O)N1CC[C@H](Nc2nc(-c3c[nH]c4ncc(Cl)cc34)ncc2F)C1 [Compound 402, (S)—N-(1-(butylsulfonyl)pyrrolidin-3-yl)-2-(5-chloro-1H-pyrrolo[2,3-b]pyridin-3-yl)-5-fluoropyrimidin-4-amine]	5 to 20
O=S(=O)(C1CCCC1)N1CC[C@H](Nc2nc(-c3c[nH]c4ncc(Cl)cc34)ncc2F)C1 [Compound 403, (S)-2-(5-chloro-1H-pyrrolo[2,3-b]pyridin-3-yl)-N-(1-(cyclopentylsulfonyl)pyrrolidin-3-yl)-5-fluoropyrimidin-4-amine]	5 to 20
CCCS(=O)(=O)N1CC[C@H](Nc2nc(-c3c[nH]c4ncc(Cl)cc34)ncc2F)C1 [Compound 410, (S)-2-(5-chloro-1H-pyrrolo[2,3-b]pyridin-3-yl)-5-fluoro-N-(1-(propylsulfonyl)pyrrolidin-3-yl)pyrimidin-4-amine]	5 to 20
Fc1cnc(-c2c[nH]c3ncc(Cl)cc23)nc1N[C@H]1CCN(CC2CC2)C1 [Compound 415, (S)-2-(5-chloro-1H-pyrrolo[2,3-b]pyridin-3-yl)-N-(1-(cyclopropylmethyl)pyrrolidin-3-yl)-5-fluoropyrimidin-4-amine]	> 20

Same assay, conditions: mean all; A/PR/8/34 infected MDCK cells, CPE assay; read-out: IC50

Structure (SMILES)	IC50 [µM]
CN1CCC(Nc2nc(-c3c[nH]c4ncccc34)ncc2F)C1=O (stereo not drawn) [Compound 376]	5 to 20
O=C1NCCC1Nc1nc(-c2c[nH]c3ncccc23)ncc1F (stereo not drawn) [Compound 377]	> 20
O=C1CCC(CNc2nc(-c3c[nH]c4ncc(Cl)cc34)ncc2F)CN1 (stereo not drawn) [Compound 378]	> 20
O=S(=O)(CC(F)(F)F)N1CCCC[C@@H]1CNc1nc(-c2c[nH]c3ncc(Cl)cc23)ncc1F [Compound 387]	5 to 20
CCCCS(=O)(=O)N1CCC(Nc2nc(-c3c[nH]c4ncc(Cl)cc34)ncc2F)C1 (stereo not drawn) [Compound 406]	> 20
CCS(=O)(=O)N1CCC(Nc2nc(-c3c[nH]c4ncc(Cl)cc34)ncc2F)C1 (stereo not drawn) [Compound 407]	> 20
CC(C)S(=O)(=O)N1CCC(Nc2nc(-c3c[nH]c4ncc(Cl)cc34)ncc2F)C1 (stereo not drawn) [Compound 408]	> 20
O=C(OC1CCOC1)N1CCC(Nc2nc(-c3c[nH]c4ncc(Cl)cc34)ncc2F)CC1 (stereo not drawn) [Compound 420]	> 20
O=C(OC1CCOC1)N1CCC(Nc2nc(-c3c[nH]c4ncc(Cl)cc34)ncc2F)C1 (stereo not drawn) [Compound 421]	5 to 20
